For orientation: IC50 means the concentration that inhibits the measured activity by half.

Each structure is given as a SMILES string. Bounds are passed on as bounds.

This passage reports IC50 results from patent US9073895B2 (Boehringer Ingelheim International GmbH, priority 2010, dated 2015).

Assay [1] has as its system synthesis of LTB4 in human whole blood. The experiment in a line: Human whole blood LTB4 production inhibition assay. Format: cell-based. The note with it: heparinized human whole blood, calcimycin 20 μM, plasma LTB4; read-out: HuWB IC50. How it is done:
Compounds are additionally tested in a human whole blood assay to determine their ability to inhibit the synthesis of LTB4 in a cellular system. Compounds are combined with heparinized human whole blood and incubated for 15 minutes at 37° C. Calcimycin (20 μM final, prepared in phosphate-buffered saline, pH 7.4) is then added and the mixture is incubated for another 30 minutes at 37° C. The samples are centrifuged for 5 min at low speed (1500×g) and the plasma layer is removed. Plasma LTB4 concentrations are then measured using an antibody-based homogenous time-resolved fluorescence method (CisBio, Bedford, Mass.).

The target in assay [2] is T1, recombinant human FLAP protein (Homo sapiens, UniProt P20292).
T1 construct: made in house; host or cells: Sf9 insect cells (membrane fraction, 100,000 x g pellet)
T1 sequence (P20292 1-161): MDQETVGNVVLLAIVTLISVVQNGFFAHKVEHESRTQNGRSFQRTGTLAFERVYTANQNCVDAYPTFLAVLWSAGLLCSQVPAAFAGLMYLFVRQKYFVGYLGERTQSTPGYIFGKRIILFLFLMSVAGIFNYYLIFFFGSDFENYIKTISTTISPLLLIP
The experiment in a line: FLAP binding assay (SPA, displacement of [125I]L-691,831). The note with it: membranes of sf9 cells expressing human FLAP, [125I]L-691,831 probe; read-out: hFLAP binding IC50. How it is done:
Compounds are assessed for the ability to bind to FLAP in a binding assay that measures compound-specific displacement of an iodinated (^125I) FLAP inhibitor via a Scintillation Proximity Assay format (adapted from S. Charleson et al., Mol. Pharmacol., 1992, 41, 873-879).
Cell pellets produced from sf9 insect cells expressing recombinant human FLAP protein are resuspended in buffer A [15 mM Tris-HCl (pH 7.5), 2 mM MgCl2, 0.3 mM EDTA, 1 mM PMSF]. The cells are lysed with a Dounce homogenizer and the material is centrifuged at 10,000×g for 10 minutes. The supernatant is then collected and centrifuged at 100,000×g for 60 minutes. To prepare membrane protein for an assay, an aliquot of the 100,000×g pellet is resuspended in 1 ml of buffer A, Dounce homogenized, and finally subjected to polytron mixing (30 seconds). Membrane protein (25 μl, 5 μg) is mixed with WGA SPA beads (Amersham) and stirred for 1 h. To an assay plate (Perkin Elmer FlexiPlate) is added 25 μl of test compound prepared in Binding buffer [100 mM Tris (pH 7.5), 140 mM NaCl, 5% glycerol, 2 mM EDTA, 0.5 mM TCEP, 0.05% Tween 20], 25 μl of [^125I]L-691,831 (an iodinated analog of MK-591, Charleson et al. Mol. Pharmacol., 41, 873-879, 1992) and finally 50 μl of the bead/protein mixture. (final concentrations: beads, 200 μg/well; protein, 5μg/well; [^125I] probe, 0 08 nM/well(17 nCi/well). The plates are shaken for 2 h before reading on a Microbeta plate reader. Non-specific binding is determined by the addition of 10 μM cold L-691,831 compound.
In general terms: Loss of bound radioactivity is the signal in a displacement assay; it reports binding, not function.

As for `Cc1cnccc1NC(=O)C1(c2ccc(-c3cnc(N)nc3)cc2)CCC1` [Example 196, 1-[4-(2-aminopyrimidin-5-yl)phenyl]-N-(3-methylpyridin-4-yl)cyclobutanecarboxamide], the results for the IC50 in assay [1] and in assay [2] were 2910 nM and 50.7 nM, respectively.
On the same counts, the results for `CC(C)(C)c1cccc(NC(=O)C2(c3ccc(-c4cnc(N)nc4)cc3)CCOCC2)c1` [Example 74, 4-[4-(2-aminopyrimidin-5-yl)phenyl]-N-(3-tert-butylphenyl)tetrahydro-2H-pyran-4-carboxamide] are more than 3000 nM and 97 nM.
Regarding `Cc1nc(-c2ccc(NC(=O)C3(c4ccc(-c5cnc(N)nc5)cc4)CCOCC3)nc2)cs1` [Example 122, 4-[4-(2-aminopyrimidin-5-yl)phenyl]-N-[5-(2-methyl-1,3-thiazol-4-yl)pyridin-2-yl]tetrahydro-2H-pyran-4-carboxamide], the IC50 in assay [1] is 1040 nM; in assay [2] it was 9.53 nM.
On the same counts, the results for `Cc1noc(-c2ccc(NC(=O)C3(c4ccc(-c5cnc(N)nc5)cc4)CCC3)nc2)n1` [Example 100, 1-[4-(2-aminopyrimidin-5-yl)phenyl]-N-[5-(3-methyl-1,2,4-oxadiazol-5-yl)pyridin-2-yl]cyclobutanecarboxamide] are 184 nM and 1.85 nM.
For `N#Cc1ccc(NC(=O)C2(c3ccc(-c4cnc(N)nc4)cc3)CCOCC2)nc1` [Example 32, 4-[4-(2-aminopyrimidin-5-yl)phenyl]-N-(5-cyanopyridin-2-yl)tetrahydro-2H-pyran-4-carboxamide], the IC50 in assay [1] turned out to be 1120 nM; in assay [2], 46.5 nM.
Consider `Nc1ncc(-c2ccc(C3(C(=O)Nc4ccncc4)CCCC3)cc2)cn1` [Example 230, 1-[4-(2-aminopyrimidin-5-yl)phenyl]-N-(pyridin-4-yl)cyclopentanecarboxamide], for which the IC50 in assay [1] worked out at 696 nM; in assay [2], 21.5 nM.
With `COc1ccc(-c2ccc(NC(=O)C3(c4ccc(-c5cnc(N)nc5)cc4)CCC3)nc2)cn1` [Example 208, 1-[4-(2-aminopyrimidin-5-yl)phenyl]-N-(6'-methoxy-3,3'-bipyridin-6-yl)cyclobutanecarboxamide], the 50% inhibitory concentration (IC50) in assay [1] worked out at 459 nM; in assay [2], 3.35 nM.
In the case of `Nc1ncc(-c2ccc(C3(C(=O)Nc4ccc(-c5ncn[nH]5)cn4)CCC3)cc2)cn1` [Example 102, 1-[4-(2-aminopyrimidin-5-yl)phenyl]-N-[5-(1H-1,2,4-triazol-5-yl)pyridin-2-yl]cyclobutanecarboxamide], the IC50 in assay [1] was found to be 330 nM; in assay [2] it was 2.05 nM.
Turning to `Nc1ncc(-c2ccc(C3(C(=O)Nc4ccc(C5CCCCC5)cc4)CCOCC3)cc2)cn1` [Example 5, 4-[4-(2-aminopyrimidin-5-yl)phenyl]-N-(4-cyclohexylphenyl)tetrahydro-2H-pyran-4-carboxamide], the IC50 was found to be 2970 nM in assay [1] and 101 nM in assay [2].
For `Nc1ncc(-c2ccc(C3(C(=O)Nc4ccc(N5CCCCC5)cc4)CCOCC3)cc2)cn1` [Example 149, 4-[4-(2-aminopyrimidin-5-yl)phenyl]-N-[4-(piperidin-1-yl)phenyl]tetrahydro-2H-pyran-4-carboxamide], the values for the IC50 in assay [1] and in assay [2] were 1460 nM and 260 nM, respectively.
On the same counts, the results for `CC(C)(C)OC(=O)N1CCc2cc(NC(=O)C3(c4ccc(-c5cnc(N)nc5)cc4)CCOCC3)ccc2C1` [Example 150, tert-butyl 6-[({4-[4-(2-aminopyrimidin-5-yl)phenyl]tetrahydro-2H-pyran-4-yl}carbonyl)amino]-3,4-dihydroisoquinolin-2(1H)-carboxylate] are 3590 nM and 48 nM.
On the same counts, the results for `Nc1ncc(-c2ccc(C3(C(=O)Nc4ccc(-c5cscn5)cn4)CCOCC3)cc2)cn1` [Example 143, 4-[4-(2-aminopyrimidin-5-yl)phenyl]-N-[5-(1,3-thiazol-4-yl)pyridin-2-yl]tetrahydro-2H-pyran-4-carboxamide] are 646 nM and 17.1 nM.
On to `Cc1nc(-c2ccc(NC(=O)C(c3ccc(-c4cnc(N)nc4)cc3)C(C)C)nc2)cs1` (centres unmarked) [Example 133, 2-[4-(2-aminopyrimidin-5-yl)phenyl]-3-methyl-N-[5-(2-methyl-1,3-thiazol-4-yl)pyridin-2-yl]butanamide], for which the results for the IC50 in assay [1] and in assay [2] were 4400 nM and 9.4 nM, respectively.
Take `COc1cncc(-c2ccc(C(C)(C(=O)Nc3ccc(C)nn3)C(C)C)cc2)c1` (centres unmarked) [Example 114]: the IC50 in assay [1] is more than 20000 nM; in assay [2], 290 nM.
For `Cn1nccc1-c1ccc(NC(=O)C2(c3ccc(-c4cnc(N)nc4)cc3)CCC2)nc1` [Example 106, 1-[4-(2-aminopyrimidin-5-yl)phenyl]-N-[5-(1-methyl-1H-pyrazol-5-yl)pyridin-2-yl]cyclobutanecarboxamide], in that order: 195 nM and 3 nM.
`Cc1nc(-c2ccc(NC(=O)C(C)(c3ccc(-c4cnn(C)c4)cc3)C(C)C)cc2)cs1` (centres unmarked) [Example 118, 2,3-dimethyl-2-[4-(1-methyl-1H-pyrazol-4-yl)phenyl]-N-[4-(2-methyl-1,3-thiazol-4-yl)phenyl]butanamide]: the half-inhibitory concentration (IC50) in assay [1] was determined as 10700 nM; in assay [2], 260 nM.
On to `N#Cc1ccc(NC(=O)C2(c3ccc(-c4cnc(N)nc4)cc3)CCOCC2)cc1C(F)(F)F` [Example 40, 4-[4-(2-aminopyrimidin-5-yl)phenyl]-N-[4-cyano-3-(trifluoromethyl)phenyl] tetrahydro-2H-pyran-4-carboxamide], for which the values for the concentration for half-maximal inhibition (IC50) in assay [1] and in assay [2] were 1220 nM and 29 nM, respectively.
For `Nc1ncc(-c2ccc(C3(C(=O)Nc4ccc(-c5csnn5)cc4)CCOCC3)cc2)cn1` [Example 25, 4-[4-(2-aminopyrimidin-5-yl)phenyl]-N-[4-(1,2,3-thiadiazol-4-yl)phenyl]tetrahydro-2H-pyran-4-carboxamide], in that order: 501 nM and 8.65 nM.
`CC(C)C(C)(C(=O)Nc1cccnc1)c1ccc(-c2cnc(N)nc2)cc1` (centres unmarked) [Example 184, 2-[4-(2-aminopyrimidin-5-yl)phenyl]-2,3-dimethyl-N-(pyridin-3-yl)butanamide]: the IC50 came to 1470 nM in assay [1] and 39 nM in assay [2].
For `Nc1ncc(-c2ccc(C3(C(=O)Nc4ccc5ncsc5c4)CCC3)cn2)cn1` [Example 92, 1-[6-(2-aminopyrimidin-5-yl)pyridin-3-yl]-N-(1,3-benzothiazol-6-yl)cyclobutanecarboxamide], in that order: 718 nM and 15.5 nM.
Regarding `CNc1ncc(-c2ccc(C3(C(=O)Nc4ccc(-c5csc(C)n5)cn4)CCOCC3)cc2)cn1` [Example 193, 4-{4-[2-(methylamino)pyrimidin-5-yl]phenyl}-N-[5-(2-methyl-1,3-thiazol-4-yl)pyridin-2-yl]tetrahydro-2H-pyran-4-carboxamide], the half-inhibitory concentration (IC50) in assay [1] is 1650 nM; in assay [2], 10.1 nM.
As to `Cc1ccc2cc(NC(=O)C3(c4ccc(-c5cnc(N)nc5)cc4)CCOCC3)ccc2n1` [Example 86, 4-[4-(2-aminopyrimidin-5-yl)phenyl]-N-(2-methylquinolin-6-yl)tetrahydro-2H-pyran-4-carboxamide], the IC50 in assay [1] amounted to 412 nM; in assay [2], 18.7 nM.
